Test results taken from ChEMBL document CHEMBL1201862, “PubChem BioAssay data set” (2004).
The source made the active and inactive calls.

Experiments:
[1] = target: T1, Zinc finger protein mex-5 (Caenorhabditis elegans, UniProt Q9XUB2); test: MEX-5/TCR-2 RNA interaction inhibitors, dose response, biochemical, C. elegans, fluorescence polarization (AID 1960)
T1 sequence (Q9XUB2 whole entry): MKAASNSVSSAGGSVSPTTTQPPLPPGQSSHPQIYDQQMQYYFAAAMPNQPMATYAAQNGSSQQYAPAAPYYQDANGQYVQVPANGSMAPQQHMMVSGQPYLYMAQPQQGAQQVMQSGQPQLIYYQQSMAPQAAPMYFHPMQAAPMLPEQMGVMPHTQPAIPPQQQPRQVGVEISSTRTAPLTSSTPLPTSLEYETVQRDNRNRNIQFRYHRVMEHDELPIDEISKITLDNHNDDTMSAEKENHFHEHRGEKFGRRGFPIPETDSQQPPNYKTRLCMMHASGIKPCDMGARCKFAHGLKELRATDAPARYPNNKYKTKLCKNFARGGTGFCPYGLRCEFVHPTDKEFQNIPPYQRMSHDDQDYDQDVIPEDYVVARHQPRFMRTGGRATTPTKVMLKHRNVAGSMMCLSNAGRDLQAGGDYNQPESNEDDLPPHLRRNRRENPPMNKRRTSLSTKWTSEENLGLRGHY

[2] = target: T2, Polyadenylate-binding protein 1 (Homo sapiens, UniProt P11940); test: PABP1 MLLE–PAM2 binding inhibitor potency, dose response, biochemical, fluorescence polarization, FITC-PAM2 peptide (AID 602259); type: functional; settings: read-out: IC50_Mean
T2 sequence (P11940 whole entry): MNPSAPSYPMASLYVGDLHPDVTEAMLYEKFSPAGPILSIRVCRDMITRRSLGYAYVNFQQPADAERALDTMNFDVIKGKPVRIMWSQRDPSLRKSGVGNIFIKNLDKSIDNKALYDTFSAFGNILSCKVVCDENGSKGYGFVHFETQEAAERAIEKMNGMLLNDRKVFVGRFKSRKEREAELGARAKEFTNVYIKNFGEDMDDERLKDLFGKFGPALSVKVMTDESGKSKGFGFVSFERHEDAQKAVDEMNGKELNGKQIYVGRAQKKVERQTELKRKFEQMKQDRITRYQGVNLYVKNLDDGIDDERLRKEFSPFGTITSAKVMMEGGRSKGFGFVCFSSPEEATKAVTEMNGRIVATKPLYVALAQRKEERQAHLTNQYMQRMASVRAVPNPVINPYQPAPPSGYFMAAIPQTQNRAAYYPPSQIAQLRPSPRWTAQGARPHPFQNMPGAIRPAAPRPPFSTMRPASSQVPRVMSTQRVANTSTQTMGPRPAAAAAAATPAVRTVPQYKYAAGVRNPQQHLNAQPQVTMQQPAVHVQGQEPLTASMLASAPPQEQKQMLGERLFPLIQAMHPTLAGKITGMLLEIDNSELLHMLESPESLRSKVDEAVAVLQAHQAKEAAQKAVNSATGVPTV

Estrogen receptor = target: T3, Estrogen receptor (Homo sapiens, UniProt P03372);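 also: potency for inhibiting coactivator peptide recruitment to the receptor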
T3 sequence (P03372 whole entry): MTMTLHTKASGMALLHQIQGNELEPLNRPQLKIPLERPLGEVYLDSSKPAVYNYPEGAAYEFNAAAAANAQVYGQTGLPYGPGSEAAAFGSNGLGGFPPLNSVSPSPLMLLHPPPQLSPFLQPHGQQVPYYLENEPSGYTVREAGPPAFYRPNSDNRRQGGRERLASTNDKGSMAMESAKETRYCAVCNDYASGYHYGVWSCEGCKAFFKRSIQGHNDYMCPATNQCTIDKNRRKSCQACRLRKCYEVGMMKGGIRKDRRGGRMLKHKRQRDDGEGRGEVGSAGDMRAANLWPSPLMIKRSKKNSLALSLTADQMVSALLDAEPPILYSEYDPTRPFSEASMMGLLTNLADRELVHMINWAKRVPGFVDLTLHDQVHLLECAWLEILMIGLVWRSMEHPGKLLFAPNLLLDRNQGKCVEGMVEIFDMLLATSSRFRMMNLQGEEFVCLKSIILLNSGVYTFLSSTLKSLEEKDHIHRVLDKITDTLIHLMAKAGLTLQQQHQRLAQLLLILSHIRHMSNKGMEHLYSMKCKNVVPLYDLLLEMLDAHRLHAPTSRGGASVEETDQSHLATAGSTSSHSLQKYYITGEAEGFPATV

[3] = target: T2, Polyadenylate-binding protein 1; test: PABP1 MLLE–PAM2 interaction inhibitors, dose response, miRNA deadenylation inhibitor project, biochemical, fluorescence polarization, Cy5-PAM2 peptide, secondary (AID 602260); type: functional; settings: read-out: IC50_Mean
[4] = target: T4, RNA-binding protein pos-1 (Caenorhabditis elegans, UniProt G5EF15); test: inhibitors of POS-1/mex-3 RNA binding, dose response, biochemical, fluorescence polarization (AID 1964);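 also: purified POS-1 fused to maltose binding protein made in E. coli; potency of compounds blocking POS-1 binding to fluorescent RNA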
T4 sequence (G5EF15 whole entry): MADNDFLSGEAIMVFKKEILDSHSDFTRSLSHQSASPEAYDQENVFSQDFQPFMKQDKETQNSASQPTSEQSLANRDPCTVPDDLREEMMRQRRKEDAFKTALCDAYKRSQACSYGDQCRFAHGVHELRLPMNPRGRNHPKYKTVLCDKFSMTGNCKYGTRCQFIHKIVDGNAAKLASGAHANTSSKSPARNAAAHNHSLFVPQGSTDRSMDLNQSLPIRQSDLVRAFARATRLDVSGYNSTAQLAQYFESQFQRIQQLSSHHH

[5] = Luminescence Cell-Based Dose Response HTS to Identify Activators of Luciferase Translation or Activity in H4 […] Cells. [Related pubchem assays: 1829 (Project Summary), 1814 (Primary HTS)]; type: functional
[6] = Luminescence Cell-Based Dose Confirmation HTS to Identify Activators of 5'UTR Stem-Loop Driven Alpha-Synuclein mRNA Translation in H4 Neuroglioblastoma Cells. [Related pubchem assays: 1829 (Project Summary), 1814 (Primary HTS)]; type: functional
H4 = test: Luminescence Cell-Based Dose Response HTS to Identify Activators of 5'UTR Stem-Loop Driven Prion Protein mRNA Translation in H4 Neuroglioblastoma Cells. [Related pubchem assays: 1829 (Project Summary), 1814 (Primary HTS)]; type: functional; settings: Homo sapiens
[7] = target: Glyceraldehyde-3-phosphate dehydrogenase (Homo sapiens, UniProt P04406)
Sequence of Glyceraldehyde-3-phosphate dehydrogenase (P04406 whole entry): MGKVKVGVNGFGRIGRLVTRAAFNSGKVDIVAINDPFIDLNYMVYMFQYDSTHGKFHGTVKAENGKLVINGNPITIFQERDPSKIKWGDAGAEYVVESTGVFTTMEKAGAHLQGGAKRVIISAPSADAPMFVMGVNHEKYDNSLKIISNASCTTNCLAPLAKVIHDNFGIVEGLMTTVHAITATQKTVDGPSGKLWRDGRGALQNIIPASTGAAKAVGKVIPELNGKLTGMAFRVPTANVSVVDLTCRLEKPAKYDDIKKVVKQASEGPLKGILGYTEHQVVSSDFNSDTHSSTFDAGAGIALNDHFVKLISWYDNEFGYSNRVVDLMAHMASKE

cells = type: functional
Genome polyprotein = Genome polyprotein (dengue virus type 2, UniProt P29990); test: Dengue-2 NS5 methyltransferase inhibitors, primary screen, biochemical, confirmation dose response (AID 588689); type: functional
Sequence of Genome polyprotein (P29990 2492-3391 limits assumed): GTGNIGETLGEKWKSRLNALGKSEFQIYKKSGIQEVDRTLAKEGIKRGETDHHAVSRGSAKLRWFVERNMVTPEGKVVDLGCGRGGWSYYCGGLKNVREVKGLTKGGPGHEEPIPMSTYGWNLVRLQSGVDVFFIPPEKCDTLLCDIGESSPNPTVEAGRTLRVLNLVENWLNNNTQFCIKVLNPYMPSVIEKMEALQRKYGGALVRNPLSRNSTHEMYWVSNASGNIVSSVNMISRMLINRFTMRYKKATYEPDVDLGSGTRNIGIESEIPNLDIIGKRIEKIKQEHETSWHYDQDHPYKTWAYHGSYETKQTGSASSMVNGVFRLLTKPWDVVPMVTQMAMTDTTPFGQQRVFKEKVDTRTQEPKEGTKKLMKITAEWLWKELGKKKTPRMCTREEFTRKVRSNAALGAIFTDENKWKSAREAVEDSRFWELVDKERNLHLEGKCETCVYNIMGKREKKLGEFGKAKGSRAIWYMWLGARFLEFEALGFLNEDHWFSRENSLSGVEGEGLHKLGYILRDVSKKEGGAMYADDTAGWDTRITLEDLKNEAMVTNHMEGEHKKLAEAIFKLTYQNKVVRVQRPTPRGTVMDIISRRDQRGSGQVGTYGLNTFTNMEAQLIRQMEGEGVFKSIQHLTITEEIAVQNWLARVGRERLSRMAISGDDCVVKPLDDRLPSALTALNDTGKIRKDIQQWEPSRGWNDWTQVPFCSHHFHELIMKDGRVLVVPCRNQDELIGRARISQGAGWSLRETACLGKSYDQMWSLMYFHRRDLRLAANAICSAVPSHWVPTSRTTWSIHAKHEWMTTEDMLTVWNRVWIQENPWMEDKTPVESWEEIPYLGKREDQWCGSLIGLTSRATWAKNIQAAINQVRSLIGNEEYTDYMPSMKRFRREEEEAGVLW

[8] = microbe, parasite or virus in culture; type: functional; settings: Mycobacterium tuberculosis
[9] = THP-1 cell cytotoxicity, dose response, cytotoxicity control for non-replicating M. tuberculosis project (AID 489025); type: functional
[10] = Vero E6 cell cytotoxicity, dose response, cytotoxicity control for non-replicating M. tuberculosis project, secondary assay (AID 492998); type: functional, VeroE6; settings: Vero C1008
[11] = test system: Streptococcus sp. 'group A'; test: growth inhibition of control SK(-) GAS strain, dose response, counter-screen for streptokinase expression inhibitor project, luminescence, kanamycin, BacTiterGlo, confirmation (AID 1900); type: functional, organism-based
Streptokinase A = target: T5, Streptokinase A (Streptococcus pyogenes serotype M1, UniProt P10520); test: S. pyogenes streptokinase expression inhibitors, potency, dose response, plasminogen activation absorbance, OD405 (AID 1914); type: functional, Streptococcus pyogenes M1 GAS;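 also: secreted streptokinase activity via plasminogen activation per viability signal from cell pellet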
T5 sequence (P10520 whole entry): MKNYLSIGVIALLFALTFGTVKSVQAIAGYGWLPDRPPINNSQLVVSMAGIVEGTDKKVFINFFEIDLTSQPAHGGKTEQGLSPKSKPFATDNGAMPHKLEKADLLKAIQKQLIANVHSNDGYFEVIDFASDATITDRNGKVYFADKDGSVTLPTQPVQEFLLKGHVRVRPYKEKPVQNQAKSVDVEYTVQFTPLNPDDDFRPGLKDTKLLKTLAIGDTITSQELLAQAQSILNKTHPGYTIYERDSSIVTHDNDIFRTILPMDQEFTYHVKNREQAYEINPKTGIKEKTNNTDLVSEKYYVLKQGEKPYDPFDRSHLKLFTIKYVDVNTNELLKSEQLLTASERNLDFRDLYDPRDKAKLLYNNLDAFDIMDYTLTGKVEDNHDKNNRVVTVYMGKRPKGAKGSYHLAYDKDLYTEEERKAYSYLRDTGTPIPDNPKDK

Streptococcus = test: Group A Streptococcus viability loss, dose response, counter-screen for streptokinase expression inhibitor project, luminescence, BacTiterGlo (AID 1915); type: functional, organism-based;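 also: potency for reduction of bacterial viability or growth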
Large T antigen = Large T antigen (Simian virus 40, UniProt P03070); type: functional, Betapolyomavirus macacae;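 also: Confirmatory-stage PubChem screen for compounds that inhibit SV40 T antigen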
Sequence of Large T antigen (P03070 whole entry): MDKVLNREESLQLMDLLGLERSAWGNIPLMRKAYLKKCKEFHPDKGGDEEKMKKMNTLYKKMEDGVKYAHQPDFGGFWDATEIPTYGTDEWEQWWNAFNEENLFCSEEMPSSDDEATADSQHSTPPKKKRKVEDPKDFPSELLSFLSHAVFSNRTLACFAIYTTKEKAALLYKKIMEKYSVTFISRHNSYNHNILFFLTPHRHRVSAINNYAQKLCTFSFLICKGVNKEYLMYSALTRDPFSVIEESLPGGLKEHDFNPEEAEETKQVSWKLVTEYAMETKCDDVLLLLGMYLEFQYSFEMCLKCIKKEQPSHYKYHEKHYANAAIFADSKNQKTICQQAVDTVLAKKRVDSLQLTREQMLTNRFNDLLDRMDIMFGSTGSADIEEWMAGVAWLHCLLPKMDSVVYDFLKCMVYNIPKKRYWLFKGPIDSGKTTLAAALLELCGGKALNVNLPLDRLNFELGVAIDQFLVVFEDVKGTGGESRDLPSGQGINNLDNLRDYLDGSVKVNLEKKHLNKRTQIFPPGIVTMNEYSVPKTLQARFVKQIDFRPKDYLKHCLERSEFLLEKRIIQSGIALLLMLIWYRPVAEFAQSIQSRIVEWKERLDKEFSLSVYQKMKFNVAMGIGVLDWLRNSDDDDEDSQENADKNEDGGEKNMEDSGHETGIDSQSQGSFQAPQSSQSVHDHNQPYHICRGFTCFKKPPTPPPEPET

SN12K1 = test: cells; type: functional; settings: Homo sapiens
[12] = NIH:OVCAR-3 ovarian cancer cell cytotoxicity, dose response, PAX8 inhibitor project, plate reader, dry powder samples (AID 743044); type: functional, cell-based
Paired box protein Pax-8 = Paired box protein Pax-8 (Homo sapiens, UniProt Q06710); test: inhibitors of PAX8-driven TPO luciferase reporter, dose response, RMG-I cells, cherry-pick (AID 687027); type: functional, cell-based;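 also: luciferase reporter driven by Pax8 target thyroperoxidase promoter measured by SteadyGlo luminescence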
Sequence of Paired box protein Pax-8 (Q06710 whole entry): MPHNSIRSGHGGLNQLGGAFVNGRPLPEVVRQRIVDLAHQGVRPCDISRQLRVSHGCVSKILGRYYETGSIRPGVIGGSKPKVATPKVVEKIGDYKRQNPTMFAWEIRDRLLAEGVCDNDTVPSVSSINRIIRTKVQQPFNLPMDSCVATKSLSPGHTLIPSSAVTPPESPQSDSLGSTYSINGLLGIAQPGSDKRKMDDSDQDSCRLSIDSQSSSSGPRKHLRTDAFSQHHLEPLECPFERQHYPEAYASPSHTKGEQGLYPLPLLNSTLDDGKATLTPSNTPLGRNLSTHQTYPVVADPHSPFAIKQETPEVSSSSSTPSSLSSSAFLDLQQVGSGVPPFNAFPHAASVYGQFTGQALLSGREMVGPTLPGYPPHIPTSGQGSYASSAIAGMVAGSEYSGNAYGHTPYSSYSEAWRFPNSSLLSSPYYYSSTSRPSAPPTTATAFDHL

[13] = target: FAD-linked sulfhydryl oxidase ALR (Homo sapiens, UniProt P55789); test: inhibitors of human ALR sulfhydryl oxidase, dose response, biochemical, H2O2 detection, luminescence, cherry-pick (AID 493248)
Sequence of FAD-linked sulfhydryl oxidase ALR (P55789 whole entry): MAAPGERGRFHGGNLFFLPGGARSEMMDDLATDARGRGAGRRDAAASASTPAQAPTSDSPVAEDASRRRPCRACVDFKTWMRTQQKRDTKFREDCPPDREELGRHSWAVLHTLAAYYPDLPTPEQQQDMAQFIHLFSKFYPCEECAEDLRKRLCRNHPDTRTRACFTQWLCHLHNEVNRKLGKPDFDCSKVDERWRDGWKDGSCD

[14] = P. falciparum Dd2 growth inhibitors, dose response, SYBR Green, cherry-picked samples (AID 1159567); type: functional, cell-based

## Fc1ccc(NCc2cccnc2)cc1F
[1]
  EC50: 11.2 µM (active)
[2]
  IC50: 49.1 µM (inactive)
Estrogen receptor
  IC50: > 50 µM (not active)
[3]
  IC50: > 66 µM (inactive)
[4]
  EC50: 15.4 µM (active)

## O=C(COn1nnc2ccccc21)NCC1CCCCC1
[5]
  EC50: 68.8 µM (active)
[6]
  EC50: 5.83 µM (active)
H4
  EC50: 31.9 µM (inconclusive)

## COc1cccc(N2C(=O)C(Cl)=C(N3CCN(c4ncccn4)CC3)C2=O)c1
[7]
  IC50: > 50 µM (inconclusive)

## CC12CN3CC(C)(CN(C1)C3c1ccc([N+](=O)[O-])o1)C2 (stereo not drawn)
cells
  IC50: 11.1 µM (active)

## COc1ccccc1-c1cc(C(=O)Nc2sc3c(c2C#N)CCC(C)C3)c2ccccc2n1 (stereo not drawn)
Genome polyprotein
  IC50: 97.8 µM (active)

## Cn1cnc([N+](=O)[O-])c1Sc1ccc(Br)cc1
[8]
  CC50: 32.4 µM (active)
cells
  IC50: 11.5 µM (active)
[9]
  CC50: 34.4 µM (active)
[10]
  CC50: > 20 µM (active)

## CSCCC1NC(=O)NC1=O (stereo not drawn)
Estrogen receptor
  IC50: > 50 µM (not active)

## COc1cc2cc(C(c3nnnn3C3CCCC3)N3CCc4ccccc43)c(=O)[nH]c2cc1OC (stereo not drawn)
Estrogen receptor
  IC50: 21.9 µM (active)

## Cc1cc(O)nc(-n2nc(C)cc2C)n1
cells
  IC50: 3.82 µM (active)
[9]
  CC50: > 40 µM (active)
[10]
  CC50: > 20 µM (active)

## COc1ccc2cc(C(=O)C3CCCN(Cc4cccc(C)n4)C3)ccc2c1 (stereo not drawn)
[11]
  EC50: 11.1 µM (active)
cells
  IC50: 3 µM (active)
[9]
  CC50: > 40 µM (active)
Streptokinase A
  EC50: > 150 µM (not active)
Streptococcus
  EC50: > 150 µM (not active)

## C=CCOc1c(Br)cc(/C=C2/C(=O)ON=C2C)cc1OC
Genome polyprotein
  IC50: > 100 µM (active)

## Cc1ccc(CCC(=O)Nc2cc(Cl)ccc2Cl)o1
cells
  IC50: 42.8 µM (active)

## Cc1cccn2c(CN(C)CCC3CCCCO3)c(C(=O)N3CCCCC3)nc12 (stereo not drawn)
[5]
  EC50: > 120 µM (not active)
[6]
  EC50: 19.9 µM (active)
H4
  EC50: > 120 µM (not active)

## CC1(C)CC(=O)C(C(c2ccc(Br)cc2)C2C(=O)CC(C)(C)CC2=O)C(=O)C1
Genome polyprotein
  IC50: 79.3 µM (active)

## O=C(O)c1cc(S(=O)(=O)O)cc(Nc2c3ccccc3nc3ccccc23)c1O
Large T antigen
  IC50: 20.2 µM (active)

## COc1ccc(N2CCN(C3=C(Cl)C(=O)N(c4cccc(C(F)(F)F)c4)C3=O)CC2)cc1
[7]
  IC50: > 50 µM (inconclusive)

## Cn1c(=O)c2c(nc(NCC3CCCC(CN)C3)n2Cc2ccc(Cl)cc2Cl)n(C)c1=O (stereo not drawn)
[5]
  EC50: > 120 µM (not active)
[6]
  EC50: > 120 µM (not active)
H4
  EC50: > 120 µM (not active)

## O=C(c1ccc(-c2ccc([N+](=O)[O-])cc2)o1)N1CCCCCCC1
cells
  IC50: 12.7 µM (active)
[9]
  CC50: 9 µM (active)
[10]
  CC50: 9.37 µM (active)

## COC(=O)C1=C(O)/C(=C\c2ccc(CNC(=O)C(=O)Nc3ccc(C)c(C)c3)o2)N=C1C
Estrogen receptor
  IC50: 19.6 µM (active)

## O=[N+]([O-])c1ccc(Sc2n[nH]c(-c3ccccc3)n2)nc1
[5]
  EC50: 93.9 µM (active)
[6]
  EC50: 5.81 µM (active)
H4
  EC50: > 120 µM (not active)

## Cc1ccc(NC(=O)C2OCCc3ccccc32)cc1 (stereo not drawn)
[5]
  EC50: 12 µM (active)
[6]
  EC50: 14.7 µM (active)
H4
  EC50: 31.4 µM (active)

## CCOC(=O)c1ccsc1NC(=O)CCS(=O)(=O)c1ccccc1
[9]
  CC50: 34.5 µM (active)
[10]
  CC50: > 20 µM (active)

## CCN(CC)c1ccc(NC(=O)c2ccccc2F)cc1
Large T antigen
  IC50: 18.8 µM (active)

## COc1ccc2nc(NC3=NCCC3)sc2c1
[5]
  EC50: 22.1 µM (active)
[6]
  EC50: 37.7 µM (active)
H4
  EC50: 8.52 µM (active)

## CN(C)CCNC(=O)c1cc([N+](=O)[O-])cc2ccc(-c3ccccc3)nc12
SN12K1
  GI50: 3.04 µM (inactive)

## O=C(C[C@@H]1CC[C@@H]2[C@H](COC[C@@H](O)CN2S(=O)(=O)c2cccc(Cl)c2)O1)Nc1ccc(-c2ccccc2)cc1
[12]
  AC50: 18.9 µM (active)
Paired box protein Pax-8
  AC50: 9.62 µM (active)

## Cc1ccc(S(=O)(=O)N2CCN(CC(=O)N/N=C\c3ccc(O)c(O)c3)CC2)cc1
Large T antigen
  IC50: 9.98 µM (active)
[13]
  AC50: 2.26 µM (active)

## COC(=O)c1ccc(/N=C/c2c(-c3ccccc3)n[nH]c2O)cc1
[5]
  EC50: > 120 µM (not active)
[6]
  EC50: > 120 µM (not active)
H4
  EC50: > 120 µM (not active)

## COc1cc(/C=c2\sc3nc(-c4ccncc4)nn3c2=O)ccc1OC(C)=O
Estrogen receptor
  IC50: 31.7 µM (not active)

## Cc1ccccc1S(=O)(=O)N(C)C[C@H]1OCc2ccccc2-c2ccccc2C(=O)N([C@@H](C)CO)C[C@H]1C
[14]
  AC50: 20.9 µM (active)

## N#Cc1cccc(-c2ccc3c(c2)[C@H]2[C@H](CCN2C(=O)c2ccncc2)[C@H](CO)N3)c1
[14]
  AC50: 7.86 µM (active)
